According to patent US20260356860A1, “2-SUBSTITUTED 3,4A,5,7,8,8A-HEXAHYDRO-4H-THIOPYRANO[4,3-DJPYRIMIDIN-4-ONES FOR WOUND TREATMENT” (priority 2022, published 2026):

Key:
[1] = system: full thickness excisional wounds; assay: Rete ridge formation (full thickness wound healing study); format: in vivo, Yucatan Miniature Swine; settings: rete ridge/mm
Experimental: A 21-day full thickness open excisional wound healing study was conducted on Yucatan™ Miniature Swine (Sinclair BioResources, Auxvasse, Missouri, USA) to evaluate the efficacy of healing and local tissue reaction of compounds of Formula (I). Compounds and controls were topically administered on full thickness open excisional wounds once every other day (total 11 doses).
(§1) Additional tests were performed including elasticity (Table 12); max force (Table 13); tensile strength (strain) (Table 14); energy peak (Table 15); rete-ridge formation; and collagen organization (plane polarized light) (FIG. 24) of the healed wound sites, described as follows.
Improved rete ridge formation is described as epithelial extensions that project into the underlying connective tissue in both skin and mucous membrances—improved rete ridge formation is a sign of tissue regeneration rather than fibrosis/scarring (reduced rete ridge formation).

closed excisional wounds = assay: Collagen organization (plane polarized light) of closed excisional wounds; format: in vivo, Yucatan Miniature Swine
Experimental: as §1
Regarding collagen organization, the number of wounds indicating collagen infiltration into the scar were identified by polarized imaging (plane polarized light).

healed wound sites = assay: Physical properties of healed wounds, summary; format: in vivo, porcine; settings: compared to the control
Experimental: as §1
Wounds treated with 0.9% saline provided the least wound healing integrity for elasticity, max force, strain, and energy peak parameters.

[2] = system: C. acnes (derived from ATCC ® 11827 ™); assay: Bacteriostasis, log reduction; format: cell-based

## O=c1[nH]c(-c2ccc(-c3ccc(Br)nc3)cc2)nc2c1CSCC2 [Compound 7, 2-(4-(6-bromopyridin-3-yl)phenyl)-3,5,7,8-tetrahydro-4H-thiopyrano [4,3-d]pyrimidin-4-one]
[1]
  rete ridge formation compared to the saline control: improved wound healing compared to the saline control (rete ridge/mm)

## CC(C)(OCCO)c1ccc(-c2nc3c(c(=O)[nH]2)CSCC3)cc1 [Compound 8, 2-(4-(2-(2-hydroxyethoxy)propan-2-yl)phenyl)-3,5,7,8-tetrahydro-4H-thiopyrano[4,3-d]pyrimidin-4-one]
[1]
  rete ridge formation compared to the saline control: improved wound healing compared to the saline control (rete ridge/mm)

## O=c1[nH]c(-c2ccc(-c3ccc(B(O)O)cc3)cc2)nc2c1CSCC2 [Compound 10, (4′-(4-oxo-3,5,7,8-tetrahydro-4H-thiopyrano[4,3-d]pyrimidin-2-yl)-[1,1′-biphenyl]-4-yl)boronic acid]
Closed excisional wounds
  number of wounds indicating collagen infiltration into the scar: 7 wounds
Healed wound sites
  wound healing integrity (physical properties of the healed wound site): greatest wound healing integrity

## COC(=O)NCCOC(C)(C)c1ccc(-c2nc3c(c(=O)[nH]2)CSCC3)cc1 [Compound 18, methyl (2-((2-(4-(4-oxo-3,5,7,8-tetrahydro-4H-thiopyrano[4,3-d]pyrimidin-2-yl)phenyl)propan-2-yl)oxy)ethyl)carbamate]
[2]; 24 h
  Average result: 10.7 × 10^4
  Log Reduction: 0.7
  Log Value: 4.2
[2]; 72 h
  Average result: 6.5 × 10^3
  Log Reduction: 1.1
  Log Value: 3.8
